From ChEMBL document CHEMBL3272336, “Potential histidine decarboxylase inhibitors. 1. alpha- and beta-substituted histidine analogues” (J Med Chem, 1977)
Calls of active or inactive are those of the source. The rule behind the calls is not given here.

Tests used:
[1] = target: T1, Histidine decarboxylase (Rattus norvegicus) (UniProt P16453); experiment: Inhibition of histidine decarboxylase in rat pyloric stomach using [carboxyl-14C]-histidine as substrate at 10^-3 M by 14CO2 trapping assay relative to control; format: tissue-based
T1 sequence (whole entry): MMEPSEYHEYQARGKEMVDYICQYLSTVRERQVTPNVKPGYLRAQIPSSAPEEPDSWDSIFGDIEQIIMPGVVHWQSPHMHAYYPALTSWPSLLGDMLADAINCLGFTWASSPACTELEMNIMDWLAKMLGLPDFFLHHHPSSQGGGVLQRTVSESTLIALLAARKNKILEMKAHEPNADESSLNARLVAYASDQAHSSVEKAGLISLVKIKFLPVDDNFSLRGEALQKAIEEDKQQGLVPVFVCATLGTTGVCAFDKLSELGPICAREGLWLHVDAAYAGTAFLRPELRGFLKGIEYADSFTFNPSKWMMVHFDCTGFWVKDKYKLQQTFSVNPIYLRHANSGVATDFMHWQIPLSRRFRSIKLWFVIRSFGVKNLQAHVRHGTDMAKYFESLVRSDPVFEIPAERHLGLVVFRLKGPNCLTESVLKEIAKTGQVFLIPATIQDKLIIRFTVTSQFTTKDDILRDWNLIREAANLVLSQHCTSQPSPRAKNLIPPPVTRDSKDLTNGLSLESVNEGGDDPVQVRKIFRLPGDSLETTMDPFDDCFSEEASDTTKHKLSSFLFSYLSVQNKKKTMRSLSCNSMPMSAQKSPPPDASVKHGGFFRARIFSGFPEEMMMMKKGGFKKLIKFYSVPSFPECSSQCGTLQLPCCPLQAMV

[2] = target: T1, Histidine decarboxylase (Rattus norvegicus); experiment: Inhibition of histidine decarboxylase in rat pyloric stomach using [carboxyl-14C]-histidine as substrate at 10^-4 M by 14CO2 trapping assay relative to control; format: tissue-based

Row | inhibition [1] | inhibition [2] | SMILES
1 | 1% | 0% | CC(C)[C@](N)(Cc1c[nH]cn1)C(=O)O
2 | 40% | 30% | C[C@](N)(Cc1c[nH]cn1)C(=O)O
3 | 0% |  | CC(C)(c1c[nH]cn1)[C@H](N)C(=O)O
4 |  | inactive | CC(c1c[nH]cn1)[C@H](N)C(=O)O (some centres not stated)
5 | 0% |  | NC(CCc1c[nH]cn1)C(=O)O (configuration not stated)
6 | 14% | 6% | CC[C@](N)(Cc1c[nH]cn1)C(=O)O
7 | 0% |  | CCCC[C@](N)(Cc1c[nH]cn1)C(=O)O

Row | SMILES | inhibition [1] | inhibition [2]
8 | N[C@@]1(Cc2c[nH]cn2)CCOC1=O | 19% | 12%
